Measured values: patent US5973229A, “Gene encoding herbicide safener binding protein” (Board of Trustees Operating Michigan State University, priority 1997, dated 1999)

How the values were obtained:
[1] = molecular target: T1, SafBP (SBP1 expressed in E. coli) (Zea mays, UniProt O49010); experiment: [3H]Saf binding in extracts of E. coli expressing SBP1; set-up: species or system maize (Zea mays L.); conditions: for Total [3H]Saf binding: E. coli/SBP1 2-hr extract, 20.9 μg protein, [3H]R-29148 alone 67.3, average of duplicates
T1 construct: possible vector-derived N-terminal residues
T1 sequence (O49010 1-363): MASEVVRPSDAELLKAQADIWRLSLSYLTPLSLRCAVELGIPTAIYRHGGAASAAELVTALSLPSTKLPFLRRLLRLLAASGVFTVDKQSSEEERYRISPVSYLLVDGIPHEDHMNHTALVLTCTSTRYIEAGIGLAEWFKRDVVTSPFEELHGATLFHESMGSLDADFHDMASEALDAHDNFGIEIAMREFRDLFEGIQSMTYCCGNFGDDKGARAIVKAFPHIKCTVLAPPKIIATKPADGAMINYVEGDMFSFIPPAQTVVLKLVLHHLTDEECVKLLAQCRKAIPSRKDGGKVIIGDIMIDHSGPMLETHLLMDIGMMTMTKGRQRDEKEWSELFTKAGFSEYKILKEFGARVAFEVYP
Experimental: Binding Assay. Racemic R-29148 (Saf) and [^3 H]Saf (specific activity 15 Ci/mmol) were prepared according to Latli, B. et al., J. Labelled Cmpd Radiopharmn. 36:147-155 (1995). The sources of other chemicals are given in Walton, J. D. and Casida, J. E., Plant Physiol. 109:213-219 (1995). [^3 H]Saf binding was measured by incubating extracts with ca. 400,000 cpm of [^3 H]Saf in 50 mM Tris-HCl, pH 8, in a total volume of 1 mL for 60 min at 22° C. The extracts were then filtered through GF/A (Whatman) glass fiber filters that had been soaked in 0.3% polyethylenimine, the filters rinsed with water, and radioactivity retained on the filters measured by scintillation counting. Walton, J. D. and Casida, J. E., Plant Physiol. 109:213-219 (1995).
Expression of SafBP in E. coli. Vector pZL1 (Gibco-BRL) containing the SafBP cDNA clone was digested with EcoRI and NotI, the 1.5-kb insert cloned into the corresponding sites in the E. coli expression vector pET21c (Novagen, Madison, Wis.), and the resulting construct transformed into E. coli strain BL21(DE3) (Novagen). A 50-mL culture of this strain was grown at 37° C. to an OD600 of 0.5 at which point expression of the cDNA was induced with 1 mM isopropylthiogalactoside (IPTG). As a control, E. coli BL21(DE3) transformed with pET21c with no insert was grown in parallel. Samples (each 12.5 mL) were removed at 0, 1, 2, and 3 hr after induction, centrifuged, and extracted by the freeze-thaw method according to Novagen, and centrifuged again to remove cell debris. Each sample was in a final volume of 5 mL of 50 mM Tris-HCl, pH 8; 50 μL of this was used in the [^3 H]Saf binding assay according to Walton and Casida. Walton, J. D. and Casida, J. E., Plant Physiol. 109:213-219 (1995).
SBP1 was expressed in E. coil behind an IPTG-inducible promoter. Extracts of E. coil expressing SBP1 have strong SafBA whereas cells transformed with the empty expression vector have no binding (Table II). […] After growing to an OD600 of 0.5, cells were induced with IPTG and aliquots harvested at the indicated times after induction, lysed, and centrifuged to remove cell debris. Final volume of each extract was 5 mL. Control cells were transformed with the vector without insert. Values are the average of duplicates. Like [^3 H]Saf binding to the native maize protein, [^3 H]Saf binding in E. coli extracts is inhibited by dichlormid, EPTC, metolachlor, acetochlor, and alachlor (Table III). Table III provides inhibition of [^3 H]Saf binding by safeners and herbicides in extracts of E. coli expressing SBP1. The E.coli/SBP1 2-hr time point from […] was used; protein content per sample was 20.9 μg. Values are the average of duplicates.

[2] = molecular target: safener binding activity (SafBA) / SafBP; conditions: cited from earlier work; for IC50: maize SafBA, from Walton and Casida 1995, read-out: IC50 (inhibitor concentration that reduces specific [3H]Saf binding by 50%)
[3] = competitor Concentration 1.1 (unit not given)

CC1CN(C(=O)C(Cl)Cl)C(C)(C)O1 (racemic) [R-29148, (R,S)-3-dichloroacetyl-2,2,5-trimethyloxazolidine]
Total [3H]Saf binding ([1]; competitor Concentration 2.5 (unit not given)): 3.0
IC50 [2]: 120 nM
Kd ([2]; soluble, high affinity binding activity in extracts of etiolated maize seedlings, read-out: Kd of safener binding activity (SafBA) for [3H]Saf): 120 nM

CCCN(CCC)C(=O)SCC [EPTC, S-ethyl dipropylthiocarbamate]
Inhibition of R-29148 binding in extracts of E. coli cells expressing SBP1 [1]: competitively inhibited
Total [3H]Saf binding ([1]; competitor Concentration 1.6 (unit not given)): 1.7
SafBP binds herbicide [2]: binds
IC50 [2]: 110 nM

CCOCN(C(=O)CCl)c1c(C)cccc1CC [acetochlor]
Inhibition of R-29148 binding in extracts of E. coli cells expressing SBP1 [1]: inhibited
Total [3H]Saf binding [1, 3]: 21.6
SafBP binds herbicide [2]: binds
IC50 [2]: 180 nM

CCc1cccc(CC)c1N(COC)C(=O)CCl [alachlor]
Inhibition of R-29148 binding in extracts of E. coli cells expressing SBP1 [1]: competitively inhibited
Total [3H]Saf binding [1, 3]: 1.7
SafBP binds herbicide [2]: binds
IC50 [2]: 70 nM

CCSC(=O)N(CC(C)C)CC(C)C [butylate]
SafBP binds herbicide [2]: binds

CCSC(=O)N(CC)C1CCCCC1 [cycloate]
SafBP binds herbicide [2]: binds

C=CCN(CC=C)C(=O)C(Cl)Cl [dichlormid]
Inhibition of R-29148 binding in extracts of E. coli cells expressing SBP1 [1]: competitively inhibited
Total [3H]Saf binding ([1]; competitor Concentration 1.4 (unit not given)): 0.7
IC50 [2]: 10 nM

CCc1cccc(C)c1N(C(=O)CCl)C(C)COC (centres unmarked) [metolachlor]
Inhibition of R-29148 binding in extracts of E. coli cells expressing SBP1 [1]: competitively inhibited
Total [3H]Saf binding [1, 3]: 3.3
SafBP binds herbicide [2]: binds
IC50 [2]: 40 nM

CC(C)N(C(=O)CCl)c1ccccc1 [propachlor]
SafBP binds herbicide [2]: binds

CC(C)N(C(=O)SCC(Cl)=C(Cl)Cl)C(C)C [triallate]
SafBP binds herbicide [2]: binds
